Measured values from US10829501B2 (BRISTOL-MYERS SQUIBB COMPANY, priority 2016, dated 2020).

These compounds were tested against ROCK2 (Homo sapiens, UniProt O75116) (assay: ROCK2 kinase inhibition assay (LABCHIP 3000 Reader, FITC peptide substrate);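 also: rho kinase reaction read by separating phosphorylated from unphosphorylated peptide on chip, with inhibition of kinase activity computed per concentration across a dose-response series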).
Sequence of ROCK2 (O75116 whole entry, species assumed): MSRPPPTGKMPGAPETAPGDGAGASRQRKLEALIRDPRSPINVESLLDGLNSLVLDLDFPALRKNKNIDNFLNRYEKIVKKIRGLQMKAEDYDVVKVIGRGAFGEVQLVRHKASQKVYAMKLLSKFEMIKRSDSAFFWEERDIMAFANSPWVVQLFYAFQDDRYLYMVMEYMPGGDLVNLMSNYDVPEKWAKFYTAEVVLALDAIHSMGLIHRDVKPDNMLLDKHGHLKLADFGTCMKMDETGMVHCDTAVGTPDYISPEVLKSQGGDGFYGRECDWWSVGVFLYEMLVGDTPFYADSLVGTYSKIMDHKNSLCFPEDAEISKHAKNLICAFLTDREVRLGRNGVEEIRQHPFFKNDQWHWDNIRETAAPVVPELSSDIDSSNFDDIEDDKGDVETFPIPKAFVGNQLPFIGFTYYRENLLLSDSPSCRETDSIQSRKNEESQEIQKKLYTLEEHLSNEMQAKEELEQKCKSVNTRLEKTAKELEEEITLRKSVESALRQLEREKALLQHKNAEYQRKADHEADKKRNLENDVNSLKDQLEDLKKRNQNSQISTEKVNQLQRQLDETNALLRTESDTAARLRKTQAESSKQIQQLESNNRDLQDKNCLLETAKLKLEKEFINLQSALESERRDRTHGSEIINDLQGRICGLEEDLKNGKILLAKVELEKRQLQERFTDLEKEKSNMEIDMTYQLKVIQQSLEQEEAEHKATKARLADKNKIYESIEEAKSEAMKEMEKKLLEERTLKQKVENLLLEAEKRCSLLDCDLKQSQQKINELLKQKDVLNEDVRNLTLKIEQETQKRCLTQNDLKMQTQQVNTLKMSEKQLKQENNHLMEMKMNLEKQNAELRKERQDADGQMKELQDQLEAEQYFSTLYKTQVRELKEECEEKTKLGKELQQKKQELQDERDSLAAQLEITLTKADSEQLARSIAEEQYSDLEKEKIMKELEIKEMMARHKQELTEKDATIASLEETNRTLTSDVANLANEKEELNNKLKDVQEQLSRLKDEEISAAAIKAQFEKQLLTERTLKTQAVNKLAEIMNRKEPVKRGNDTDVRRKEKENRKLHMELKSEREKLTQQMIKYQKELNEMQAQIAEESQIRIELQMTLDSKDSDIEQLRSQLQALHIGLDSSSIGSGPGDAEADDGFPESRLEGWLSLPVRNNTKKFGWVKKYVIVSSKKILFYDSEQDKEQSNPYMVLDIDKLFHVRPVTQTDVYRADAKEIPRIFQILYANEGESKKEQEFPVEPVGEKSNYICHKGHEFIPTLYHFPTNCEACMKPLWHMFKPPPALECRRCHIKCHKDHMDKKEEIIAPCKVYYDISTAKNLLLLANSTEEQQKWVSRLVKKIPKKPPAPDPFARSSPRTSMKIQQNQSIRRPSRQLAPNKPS

Row | IC50 [nM] | Compound
1 | 250 to 2500 | COc1ccc(OC2CC3(CC(NC(=O)c4cnn5cc(OCC(C)(C)O)ccc45)C3)C2)c(C(N)=O)c1 (stereo not drawn) [Example 212, N-(6-(2-carbamoyl-4-methoxyphenoxy)spiro[3.3]heptan-2-yl)-6-(2-hydroxy-2-methylpropoxy)pyrazolo[1,5-a]pyridine-3-carboxamide]
2 | 5 to 50 | COc1ccc(OC2CC3(CC(NC(=O)c4cnn5c(C6CC6)c(OCC(C)(C)O)ccc45)C3)C2)c(C(N)=O)c1 (stereo not drawn) [Example 213, N-(6-(2-carbamoyl-4-methoxyphenoxy)spiro[3.3]heptan-2-yl)-7-cyclopropyl-6-(2-hydroxy-2-methylpropoxy)pyrazolo[1,5-a]pyridine-3-carboxamide]
3 | 250 to 2500 | Cc1cccc(C(N)=O)c1OC1CC2(CC(NC(=O)c3cnn4c(C5CC5)c(OCC(C)(C)O)ccc34)C2)C1 (stereo not drawn) [Example 214, N-(6-(2-carbamoyl-6-methylphenoxy)spiro[3.3]heptan-2-yl)-7-cyclopropyl-6-(2-hydroxy-2-methylpropoxy)pyrazolo[1,5-a]pyridine-3-carboxamide]
4 | 5 to 50 | Cc1ccc(C(N)=O)c(OC2CC3(CC(NC(=O)c4cnn5cc(OCC(C)(C)O)ccc45)C3)C2)c1 (stereo not drawn) [Example 215, N-(6-(2-carbamoyl-5-methylphenoxy)spiro[3.3]heptan-2-yl)-6-(2-hydroxy-2-methylpropoxy)pyrazolo[1,5-a]pyridine-3-carboxamide]
5 | 5 to 50 | Cc1ccc(OC2CC3(CC(NC(=O)c4cnn5c(C6CC6)c(OCC(C)(C)O)ccc45)C3)C2)c(C(N)=O)c1 (stereo not drawn) [Example 216, N-(6-(2-carbamoyl-4-methylphenoxy)spiro[3.3]heptan-2-yl)-7-cyclopropyl-6-(2-hydroxy-2-methylpropoxy)pyrazolo[1,5-a]pyridine-3-carboxamide]
6 | < 5 | Cc1ccc(C(N)=O)c(OC2CC3(CC(NC(=O)c4cnn5c(C6CC6)c(OCC(C)(C)O)ccc45)C3)C2)c1 (stereo not drawn) [Example 217, N-(6-(2-carbamoyl-5-methylphenoxy)spiro[3.3]heptan-2-yl)-7-cyclopropyl-6-(2-hydroxy-2-methylpropoxy)pyrazolo[1,5-a]pyridine-3-carboxamide]
7 | 250 to 2500 | Cc1ccc(OC2CC3(CC(NC(=O)c4cnn5cc(OCC(C)(C)O)ccc45)C3)C2)c(C(N)=O)c1 (stereo not drawn) [Example 218, N-(6-(2-carbamoyl-4-methylphenoxy)spiro[3.3]heptan-2-yl)-6-(2-hydroxy-2-methylpropoxy)pyrazolo[1,5-a]pyridine-3-carboxamide]
8 | 5 to 50 | CC(C)(O)COc1ccc2c(C(=O)NC3CC4(C3)CC(Oc3cc(OC(F)F)ccc3C(N)=O)C4)cnn2c1 (stereo not drawn) [Example 219, N-(6-(2-carbamoyl-5-(difluoromethoxy)phenoxy)spiro[3.3]heptan-2-yl)-6-(2-hydroxy-2-methylpropoxy)pyrazolo[1,5-a]pyridine-3-carboxamide]
9 | 5 to 50 | CC(C)(O)COc1ccc2c(C(=O)NC3CC4(C3)CC(Oc3cc(Cl)ccc3C(N)=O)C4)cnn2c1 (stereo not drawn) [Example 220, N-(6-(2-carbamoyl-5-chlorophenoxy)spiro[3.3]heptan-2-yl)-6-(2-hydroxy-2-methylpropoxy)pyrazolo[1,5-a]pyridine-3-carboxamide]
10 | 50 to 250 | CC(C)(O)COc1ccc2c(C(=O)NC3CC4(C3)CC(Oc3cc(-n5ccnc5)ccc3C(N)=O)C4)cnn2c1 (stereo not drawn) [Example 221]
11 | 5 to 50 | CC(C)(O)COc1ccc2c(C(=O)NC3CC4(C3)CC(Oc3cc(-c5ncccn5)ccc3C(N)=O)C4)cnn2c1 (stereo not drawn) [Example 222, N-(6-(2-carbamoyl-5-(pyrimidin-2-yl)phenoxy)spiro[3.3]heptan-2-yl)-6-(2-hydroxy-2-methylpropoxy)pyrazolo[1,5-a]pyridine-3-carboxamide]
12 | 5 to 50 | CC(C)(O)COc1ccc2c(C(=O)NC3CC4(C3)CC(Oc3cc(-n5cccn5)ccc3C(N)=O)C4)cnn2c1 (stereo not drawn) [Example 223, N-(6-(2-carbamoyl-5-(1H-pyrazol-1-yl)phenoxy)spiro[3.3]heptan-2-yl)-6-(2-hydroxy-2-methylpropoxy)pyrazolo[1,5-a]pyridine-3-carboxamide]
13 | 5 to 50 | CN1CCN(c2ccc(C(N)=O)c(OC3CC4(CC(NC(=O)c5cnn6cc(OCC(C)(C)O)ccc56)C4)C3)c2)CC1 (stereo not drawn) [Example 224, N-(6-(2-carbamoyl-5-(4-methylpiperazin-1-yl)phenoxy)spiro[3.3]heptan-2-yl)-6-(2-hydroxy-2-methylpropoxy)pyrazolo[1,5-a]pyridine-3-carboxamide]
14 | 5 to 50 | CC(C)(O)COc1ccc2c(C(=O)NC3CC4(C3)CC(Oc3cc(-c5ccncc5)ccc3C(N)=O)C4)cnn2c1 (stereo not drawn) [Example 225, N-(6-(2-carbamoyl-5-(pyridin-4-yl)phenoxy)spiro[3.3]heptan-2-yl)-6-(2-hydroxy-2-methylpropoxy)pyrazolo[1,5-a]pyridine-3-carboxamide]
15 | 50 to 250 | CC(C)(O)COc1ccc2c(C(=O)NC3CC4(C3)CC(Oc3cc(C5CNC5)ccc3C(N)=O)C4)cnn2c1 (stereo not drawn) [Example 226, N-(6-(5-(azetidin-3-yl)-2-carbamoylphenoxy)spiro[3.3]heptan-2-yl)-6-(2-hydroxy-2-methylpropoxy)pyrazolo[1,5-a]pyridine-3-carboxamide]
16 | 5 to 50 | CC(C)(O)COc1ccc2c(C(=O)NC3CC4(C3)CC(Oc3cc(N5CCCC5)ccc3C(N)=O)C4)cnn2c1 (stereo not drawn) [Example 227, N-(6-(2-carbamoyl-5-(pyrrolidin-1-yl)phenoxy)spiro[3.3]heptan-2-yl)-6-(2-hydroxy-2-methylpropoxy)pyrazolo[1,5-a]pyridine-3-carboxamide]
17 | 50 to 250 | CC(C)(O)COc1ccc2c(C(=O)NC3CC4(C3)CC(Oc3cc(-c5ccccc5C(F)(F)F)ccc3C(N)=O)C4)cnn2c1 (stereo not drawn) [Example 228, N-(6-((4-carbamoyl-2′-(trifluoromethyl)-[1,1′-biphenyl]-3-yl)oxy)spiro[3.3]heptan-2-yl)-6-(2-hydroxy-2-methylpropoxy)pyrazolo[1,5-a]pyridine-3-carboxamide]
18 | 5 to 50 | CC(C)(O)COc1ccc2c(C(=O)NC3CC4(C3)CC(Oc3cc(-c5ccccc5F)ccc3C(N)=O)C4)cnn2c1 (stereo not drawn) [Example 229, N-(6-((4-carbamoyl-2′-fluoro-[1,1′-biphenyl]-3-yl)oxy)spiro[3.3]heptan-2-yl)-6-(2-hydroxy-2-methylpropoxy)pyrazolo[1,5-a]pyridine-3-carboxamide]
19 | 50 to 250 | CC(C)(O)COc1ccc2c(C(=O)NC3CC4(C3)CC(Oc3cc(N5CCOCC5)ccc3C(N)=O)C4)cnn2c1 (stereo not drawn) [Example 230, N-(6-(2-carbamoyl-5-morpholinophenoxy)spiro[3.3]heptan-2-yl)-6-(2-hydroxy-2-methylpropoxy)pyrazolo[1,5-a]pyridine-3-carboxamide]
20 | < 5 | CC(C)(O)COc1ccc2c(C(=O)NC3CC4(C3)CC(Oc3cc(-c5cccc(F)n5)ccc3C(N)=O)C4)cnn2c1 (stereo not drawn) [Example 231, N-(6-(2-carbamoyl-5-(6-fluoropyridin-2-yl)phenoxy)spiro[3.3]heptan-2-yl)-6-(2-hydroxy-2-methylpropoxy)pyrazolo[1,5-a]pyridine-3-carboxamide]
21 | 5 to 50 | COC(=O)c1cncc(-c2ccc(C(N)=O)c(OC3CC4(CC(NC(=O)c5cnn6cc(OCC(C)(C)O)ccc56)C4)C3)c2)c1 (stereo not drawn) [Example 232, methyl 5-(4-carbamoyl-3-((6-(6-(2-hydroxy-2-methylpropoxy)pyrazolo[1,5-a]pyridine-3-carboxamido)spiro[3.3]heptan-2-yl)oxy)phenyl)nicotinate]
